# Patent US8580842B2, “Heteroaryl-substituted 1,3-dihydroindol-2-one derivatives and medicaments containing them” (Abbott GmbH & Co. KG, priority 2003, dated 2013)
# Structures can show the parent of a compound that is named as a salt.
# Target: T1, human V1b receptors (Homo sapiens, UniProt P47901)
# T1 construct: expressed in transfected cells; host or cells: CHO-K1 (membrane preparation V1b-3H2)
# T1 sequence (P47901 1-424): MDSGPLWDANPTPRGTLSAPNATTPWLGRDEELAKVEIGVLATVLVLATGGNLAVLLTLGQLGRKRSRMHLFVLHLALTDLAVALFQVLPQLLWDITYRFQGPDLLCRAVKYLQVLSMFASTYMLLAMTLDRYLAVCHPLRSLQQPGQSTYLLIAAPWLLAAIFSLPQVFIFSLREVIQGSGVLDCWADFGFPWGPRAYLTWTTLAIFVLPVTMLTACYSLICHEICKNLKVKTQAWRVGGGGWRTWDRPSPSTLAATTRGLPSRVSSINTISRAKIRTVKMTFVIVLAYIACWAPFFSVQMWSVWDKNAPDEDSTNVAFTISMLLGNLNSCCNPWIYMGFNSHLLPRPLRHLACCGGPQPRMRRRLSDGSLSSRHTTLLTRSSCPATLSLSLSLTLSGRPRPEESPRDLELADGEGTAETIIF
# Assay: Vasopressin V1b receptor binding assay
# Conditions: membranes from CHO-K1 cells expressing human V1b receptors, displacement of 1.5 nM 3H-AVP; read-out: Binding affinity for the vasopressin V1b receptor
# Procedure: Vasopressin V1b Receptor Binding Assay
# The binding of the compounds of this invention to the vasopressin V1b receptor was determined with the following assay:
# Compounds were dissolved in a concentration of 10^−2 M or 10^−3 M in DMSO. Further dilutions were performed with water.
# The procedure for the binding assay was based on the method of Tahara et al. (Tahara A et al., Brit. J. Pharmacol. 125, 1463-1470 (1998)). Assays (0.250 ml) consisted of membranes (58 μg protein) from CHO-K1 cells permanently expressing human V1b receptors (preparation V1b-3H2, containing protease inhibitors, Roche complete Mini #1836170), 1.5 nM ^3H-AVP (8-Arg-vasopressin, NET 800) in incubation buffer (total binding) and different concentrations of test compound (displacement). Non-specific binding was defined with 10^−6 M AVP. Assays were performed in triplicate.
# Incubation buffer: 50 mM Tris, 10 mM MgCl2, 0.1% BSA adjusted to pH 7.4 with HCl.
# After incubation, 60 min at room temperature, bound and free radioligand was separated by filtration under vacuum through Whatman GF/B glass fibre mats using a Skatron cell harvester 7000.
# Liquid scintillation counting was performed in beta-counters, Tricarb model 2000 or 2200CA (Packard). Dpm were calculated by a programme with standardisation using a standard quench series.
# Evaluation of binding parameters was performed by non-linear regression analysis with SAS. The strategy of this program is similar to the program LIGAND described by Munson and Rodbard (Munson PJ and Rodbard D, Analytical Biochem 107, 220-239 (1980)).
row,Compound,Ki
1,"COc1ccsc1S(=O)(=O)N1C(=O)C(c2cccnc2OC)(N2C[C@H](O)C[C@H]2C(=O)N(C)C)c2cc(OC(F)(F)F)ccc21 (single isomer, unassigned) [Example 286]",50 to 500 nM
2,"COc1ccc(S(=O)(=O)N2C(=O)C(c3cccnc3OC)(N3CCC[C@H]3C(=O)N(C)C)c3ccccc32)c(OC)c1 (single isomer, unassigned) [Example 226]",50 to 500 nM
3,"COc1ncccc1C1(OC(=O)N2CCN(C3CCN(C)CC3)CC2)C(=O)N(S(=O)(=O)c2ccc(C)s2)c2ccc(Cl)cc21 (centres unmarked) [Example 168, 4-(1-Methyl-piperidin-4-yl)-piperazine-1-carboxylic acid 5-chloro-3-(2-methoxy-pyridin-3-yl)-1-(5-methyl-thiophene-2-sulfonyl)-2-oxo-2,3-dihydro-1H-indol-3-yl ester diacetate]",< 50 nM
4,"COc1ccccc1C1(N2C[C@H](O)C[C@H]2C(=O)N(C)C)C(=O)N(S(=O)(=O)c2ccc(Cl)s2)c2ccc(Cl)cc21 (single isomer, unassigned) [Example 31]",< 50 nM
5,"COc1ccc(S(=O)(=O)N2C(=O)C(c3nc4ccccc4s3)(N3C[C@H](O)C[C@H]3C(=O)N(C)C)c3cc(Cl)ccc32)c(OC)c1 (single isomer, unassigned) [Example 2]",< 50 nM
6,"COc1ncccc1C1(OC(=O)N2CCN(C3CCN(C)CC3)CC2)C(=O)N(S(=O)(=O)c2ccc(OC(F)(F)F)cc2)c2ccc(Cl)cc21 (centres unmarked) [Example 123, 4-(1-Methyl-piperidin-4-yl)-piperazine-1-carboxylic acid 5-chloro-3-(2-methoxy-pyridin-3-yl)-2-oxo-1-(4-trifluoromethoxy-benzenesulfonyl)-2,3-dihydro-1H-indol-3-yl ester diacetate]",50 to 500 nM
7,"COc1ccccc1C1(N2C[C@H](O)C[C@H]2C(=O)N(C)C)C(=O)N(S(=O)(=O)c2sccc2OC)c2ccc(Cl)cc21 (single isomer, unassigned) [Example 256]",< 50 nM
8,"CCOc1ccccc1C1(OC(=O)N2CCN(C3CCN(C)CC3)CC2)C(=O)N(S(=O)(=O)c2cccc3cccnc23)c2ccc(C#N)cc21 (centres unmarked) [Example 158, 4-(1-Methyl-piperidin-4-yl)-piperazine-1-carboxylic acid 5-cyano-3-(2-ethoxy-phenyl)-2-oxo-1-(quinoline-8-sulfonyl)-2,3-dihydro-1H-indol-3-yl ester]",< 50 nM
9,"COc1ccc(S(=O)(=O)N2C(=O)C(c3ccc[nH]c3=O)(N3C[C@H](O)C[C@H]3C(=O)N(C)C)c3cc(Cl)ccc32)c(OC)c1 (stereo partly drawn) [Example 224, (2S,4R)-1-[5-Chloro-1-(2,4-dimethoxy-benzenesulfonyl)-2-oxo-3-(2-oxo-1,2-dihydro-pyridin-3-yl)-2,3-dihydro-1H-indol-3-yl]-4-hydroxy-pyrrolidine-2-carlboxylic acid dimethylamide]",< 50 nM
10,"COc1ccc(S(=O)(=O)N2C(=O)C(c3cccnc3OC)(N3C[C@H](O)C[C@H]3C(=O)N(C)C)c3ccccc32)c(OC)c1 (single isomer, unassigned) [Example 225]",50 to 500 nM
11,"COc1ncccc1C1(OC(=O)N2CCN(C3CCN(C)CC3)CC2)C(=O)N(S(=O)(=O)c2csc3ccccc23)c2ccc(Cl)cc21 (centres unmarked) [Example 170, 4-(1-Methyl-piperidin-4-yl)-piperazine-1-carboxylic acid 1-(benzo[b]thiophene-3-sulfonyl)-5-chloro-3-(2-methoxy-pyridin-3-yl)-2-oxo-2,3-dihydro-1H-indol-3-yl ester diacetate]",50 to 500 nM
12,"COc1ccccc1C1(N2C[C@H](O)C[C@H]2C(=O)N(C)C)C(=O)N(S(=O)(=O)c2cc(Br)c(Cl)s2)c2ccc(Cl)cc21 (stereo partly drawn) [Example 33, (2S,4R)-1-[1-(4-Bromo-5-chloro-thiophene-2-sulfonyl)-5-chloro-3-(2-methoxy-phenyl)-2-oxo-2,3-dihydro-1H-indol-3-yl]-4-hydroxy-pyrrolidine-2-carboxylic acid dimethylamide trifluoroacetate]",50 to 500 nM
13,"(2S,4R)-1-[5-Chloro-3-(2,4-dimethoxy-pyrimidin-5-yl)-1-(5-methyl-pyridine-2-sulfonyl)-2-oxo-2,3-dihydro-1H-indol-3-yl]-4-hydroxy-pyrrolidine-2-carboxylic acid dimethylamide [Example 289]",< 50 nM
14,"COc1ccc(S(=O)(=O)N2C(=O)C(c3cccnc3OC)(N3C[C@H](O)C[C@H]3C(=O)N(C)C)c3cc(Cl)ccc32)c(OC)c1 (single isomer, unassigned) [Example 6]",50 to 500 nM
15,COc1ccc(S(=O)(=O)N2C(=O)C(c3cccnc3OC)(N(C)[C@@H](C)C(=O)N(C)C)c3cc(Cl)ccc32)c(OC)c1 (some centres unmarked) [Example 220],< 50 nM
16,"CCOc1ccccc1C1(NC(=O)N2CCN(C3CCN(C)CC3)CC2)C(=O)N(S(=O)(=O)c2sccc2OC)c2ccc(OC)cc21 (centres unmarked) [Example 125, 4-(1-Methyl-piperidin-4-yl)-piperazine-1-carboxylic acid [3-(2-ethoxy-phenyl)-5-methoxy-1-(3-methoxy-thiophene-2-sulfonyl)-2-oxo-2,3-dihydro-1H-indol-3-yl]-amide]",< 50 nM
17,"COc1ccc(S(=O)(=O)N2C(=O)C(c3ccc(OC)nc3OC)(N3C[C@H](O)C[C@H]3C(=O)N(C)C)c3cc(Cl)ccc32)c(OC)c1 (single isomer, unassigned) [Example 238]",< 50 nM
18,"COc1ccc(S(=O)(=O)N2C(=O)C(c3cccnc3OC)(N3C[C@H](O)C[C@H]3C(=O)N(C)C)c3cc(C#N)ccc32)cc1 (single isomer, unassigned) [Example 242]",< 50 nM
19,"COc1ccccc1C1(N2C[C@H](O)C[C@H]2C(=O)N(C)C)C(=O)N(S(=O)(=O)c2ccc(C)cn2)c2ccc(Cl)cc21 (single isomer, unassigned) [Example 51]",< 50 nM
20,"COc1ccccc1C1(N2C[C@H](O)C[C@H]2C(=O)N(C)C)C(=O)N(S(=O)(=O)c2ccc(Cl)cn2)c2ccc(Cl)cc21 (single isomer, unassigned) [Example 52]",< 50 nM
21,"COc1ccc(S(=O)(=O)N2C(=O)C(OC(=O)N3CCN(C4CCN(C)CC4)CC3)(c3cccnc3OC)c3cc(Cl)ccc32)c(OC)c1 (centres unmarked) [Example 105, 4-(1-Methyl-piperidin-4-yl)-piperazine-1-carboxylic acid 5-chloro-1-(2,4-dimethoxy-benzenesulfonyl)-3-(2-methoxy-pyridin-3-yl)-2-oxo-2,3-dihydro-1H-indol-3-yl ester]",< 50 nM
22,"COc1ccc(S(=O)(=O)N2C(=O)C(c3cccnc3OC)(N3C[C@H](O)C[C@H]3C(=O)N(C)C)c3cc(C#N)ccc32)c(OC)c1 (single isomer, unassigned) [Example 232]",< 50 nM
23,"COc1ccc(S(=O)(=O)N2C(=O)C(c3cccnc3OC)(N3CCCC[C@H]3C(=O)N(C)C)c3cc(Cl)ccc32)c(OC)c1 (single isomer, unassigned) [Example 237]",< 50 nM
24,"COc1ccc(C2(N3C[C@H](O)C[C@H]3C(=O)N(C)C)C(=O)N(S(=O)(=O)c3cccs3)c3ccc(Cl)cc32)c(OC)n1 (single isomer, unassigned) [Example 280]",< 50 nM
25,"COc1ccccc1C1(N2C[C@H](O)C[C@H]2C(=O)N(C)C)C(=O)N(S(=O)(=O)c2ccc(N3CCOCC3)nc2)c2ccc(Cl)cc21 (single isomer, unassigned) [Example 56]",< 50 nM
26,"COc1ccccc1C1(OC(=O)N2CCN(C3CCN(C)CC3)CC2)C(=O)N(S(=O)(=O)c2ccccn2)c2ccc(C)cc21 (centres unmarked) [Example 127, 4-(1-Methyl-piperidin-4-yl)-piperazine-1-carboxylic acid 3-(2-methoxy-phenyl)-5-methyl-2-oxo-1-(pyridine-2-sulfonyl)-2,3-dihydro-1H-indol-3-yl ester dihydrochloride]",< 50 nM
27,"CCOc1ncccc1C1(N2C[C@H](O)C[C@H]2C(=O)N(C)C)C(=O)N(S(=O)(=O)c2ccc(OC)cc2OC)c2ccc(Cl)cc21 (single isomer, unassigned) [Example 239]",< 50 nM
28,"COc1ncccc1C1(OC(=O)N2CCN(C3CCN(C)CC3)CC2)C(=O)N(S(=O)(=O)c2ccccc2)c2ccc(Cl)cc21 (centres unmarked) [Example 76, 4-(1-Methyl-piperidin-4-yl)-piperazine-1-carboxylic acid 1-benzenesulfonyl-5-chloro-3-(2-methoxy-pyridin-3-yl)-2-oxo-2,3-dihydro-1H-indol-3-yl ester]",< 50 nM
29,"COc1ccccc1C1(N2C[C@H](O)C[C@H]2C(=O)N(C)C)C(=O)N(S(=O)(=O)c2cccc3cccnc23)c2ccc(Cl)cc21 (single isomer, unassigned) [Example 28]",< 50 nM
